In patent US4863874A, “Method for detecting phosphatidylinositol through binding to Concanavalin A” (The United States of America as represented by the …, priority 1986, dated 1989):
Read-outs that look alike come from different tables or passages of the source.

What was measured:
[1] = molecular target: T1, Con A (Canavalia ensiformis, UniProt P02866); test: Inhibition of Con A binding to liposomes by mixtures of α-MM and myo-inositol; settings: for relative inhibitory potency, PI present in the liposomes: liposomes containing PI; for type of inhibition on simultaneous addition of both inhibitors: simultaneous addition of both inhibitors to Con A and liposomes
T1 construct: purchased Sigma Chemical Co., St. Louis, MO
Procedure: Similar incubations as those described in FIG. 1 were set up with liposomes and Con A. Myo-inositol and α-MM were mixed together as inhibitors in the concentrations indicated.
(§1) Studies on the binding of Con A to liposomes were performed as follows: Con A and inhibitors (if present) in the concentrations indicated in the individual figures were incubated with 100 μl of liposomes in a final volume of 1.0 ml of buffer for 45 minutes at 25° C. After incubation, liposomes were washed twice with 2 ml portions of 0.9% NaCl-0.01M NaHCO3 (pH 7.0) and collected by centrifugation at 140,000 g for 5 minutes. Bicarbonate-saline was the buffer used throughout for solution, washing and dilutions. Specific protein binding to liposomes was measured by a Lowry assay adapted to measurement of proteins on liposomes as described previously (Alving, C. R., and Kinsky, S. C. (1971) Immunochemistry, Vol. 8, pages 325-343).
In order to characterize further the binding of Con A to liposomal PLs, and especially to PI, we mixed varying concentrations of α-MM with varrying concentrations of myo-inositol. Our reasoning was that if α-MM and myo-inositol complete for the same binding site we would record similar inhibitions to those shown in FIG. 2. […] The opposite occurred with liposomes lacking PI.

[2] = molecular target: T1, Con A; test: Binding to Con A by equilibrium dialysis, Scatchard plot
Source text: Equilibrium dialysis (microtechnique), as described by Karush, et al. (Karush, F., Karush, S. S. and Eisen, H. N. (1971) in Methods of Immunology and Immunochemistry (C. A. Williams, and M. W. Chase, Edition), Vol. III, pages 383-394, Academic Press, NY) was used to determine the binding of Con A to α-mannose, α-L-fucose, or myo-inositol. The data were plotted according to the method of Scatchard (Scatchard, G. (1949) Ann. N.Y. Acad. Sci., Vol. 51, pages 660-672).
The binding of Con A to α-D-[^3 H]-mannose or myo-[^3 H]-inositol in 0.01M bicarbonate-saline, pH 7.0, at room temperature was investigated by equilibrium dialysis. […] The ratio of the molar concentration of the bound sugar to that of protein is represented by r, c is the molar concentration of free sugar, n is the number of binding sites and K, the binding constant. A molecular weight of 108,000 for Con A was used in the calculations since Con A is a tetramer at neutral pH and the monomer mol wt. is 27,000.

[3] = test system: mouse spleen lymphocytes; test: Suppression of Con A-induced lymphocyte mitogenesis ([3H]-thymidine); format: cell-based; settings: for DPM × 10^-3 ([3H]-thymidine, DNA synthesis): geometric mean of quadruplicate ±1 S E, no inhibitor 124 ± 10; for inhibition at 40000 µM: Mus musculus, Lymphocyte, read-out: % SUPPRESSION; for inhibition of Con A-induced lymphocyte mitogenesis: added simultaneously with Con A, in words
Source text: Mitogenic determination were made on 12 weeks old male C3 HeB/FeJ mouse (Jackson Laboratory, Bar Harbour, ME) spleen cells. The method used for cell preparation and assay of mitogenic activity is described elsewhere (Richardson, E. C., and Alving, C. R. (1984) Rev. Infect. Dis., Vol. 6, pages 532-534). Briefly spleen cells were extracted into HSB (HEM Research Inc., Rockville, MD), purified on a Ficoll-Hypaque solution, washed twice with HBS and suspended in a medium containing Eagles MEM with Earle's salts (GIBCO, Grand Island, NY), penicillin 100 μg/ml and streptomycin 100 μg/ml (GIBCO), 5×10^-5 M 2-mercaptoethanol (Matheson, Coleman and Bell, Norwood, OH) and 5% fetal bovine serum (MBA, Walkersville, MD). Cultures containing 2×10^5 viable cells/0.2 ml were prepared in 96 wells microtiter plates (Linbro Chemical Co., New Haven, CT) containing Con A ([…] Con A protein/ml culture) with either 40 μmoles/ml α-MM or myo-inositol. Cultures were incubated at 37° C. in 5% CO2 and air for 48 hours. Four hours prior to harvesting, the cells were pulsed with 1 μCi of [^3 H]-thymidine, harvested on glass fiber filters with a cell harvester and the radioactivity determined by liquid scintillation.
Cultures containing 2×10^5 mouse spleen lymphocytes in 0.2 ml medium were stimulated with 6 μg Con A/ml in the presence of 40 μmoles/ml of α-MM or myo-inositol and incubated for 48 hours. DNA synthesis was determined by pulsing the cultures 4 hours prior to harvesting with 1 μCi of [^3 H]-thymidine. The values represent the geometric mean of quadruplicate cultures ±1 S E.

[4] = molecular target: T1, Con A; test: Inhibition of Con A binding to liposomes
Procedure: Similar incubations as those described in FIG. 1 were set up with liposomes and Con A. α-MM (FIG. 2a) or myo-inositol (FIG. 2b) were used as inhibitors in the concentrations indicated.
Liposomes containing PL (DMPC, or DMPC/PI) and cholesterol in molar ratios 2/1.5 were used throughout. When PI was included in the liposomes, it was in a 1/1 molar ratio with DMPC. Preparation of liposomes (multilamellar vesicles) is reported in detail (Alving, C. R., Shichijo, S., and Mattsby-Baltzer, I. (1984) in Liposome Technology, (G. Gregoriadis, edition), Vol. II, pages 157-175, CRC, Boca Raton, FL). Briefly, lipids (PLs and cholesterol) were dried in vacuo in pear-shaped flasks and dispersed in a small volume of 0.15M NaCl with the aid of a few acid washed glass beads. The final PL concentration in the aqueous dispersion was 10 mM.
as §1
Con A binding to mannose is widely accepted as the major binding specificity for Con A, and inhibition of Con A by α-MM is often used as a criterion for specificity of binding (Lis, H. and Sharon, N. (1973) Ann. Rev. Biochem., Vol. 42, pages 541-574). […] Since Con A binding was increased by the presence of PI in the liposomes we tried to inhibit it by adding increasing concentrations of myo-inositol as a soluble inhibitor. […] Therefore we conclude that the binding of Con A to PI is specific and probably involves the inositol moiety of PI.

[5] = myo-inositol and α-MM simultaneously used, FIG. 4
[6] = 6 μg Con A/ml, 40 μmoles/ml inhibitor, 48 hours

O[C@H]1[C@H](O)[C@@H](O)[C@H](O)[C@@H](O)[C@H]1O [myo-inositol]
relative inhibitory potency, PI present in the liposomes [1, 5]: the more potent inhibitor
type of inhibition on simultaneous addition of both inhibitors [1]: non-competitive
Kd [2]: 0.769 mM
DPM × 10^-3 ([3H]-thymidine, DNA synthesis) [3, 6]: 86 ± 8 DPM × 10^-3
inhibition at 40000 µM [3, 6]: 31%
inhibition of Con A-induced lymphocyte mitogenesis [3]: significant inhibition was observed
IC50 [4]: 10 mM

C[C@@H]1O[C@@H](O)[C@@H](O)[C@H](O)[C@@H]1O [α-L-fucose]
binding to Con A ([2]; 0.01M bicarbonate-saline, pH 7.0, room temperature): No binding could be detected
inhibition of Con A-induced lymphocyte mitogenesis [3]: No inhibition
inhibition of Con A binding to liposomes containing PI ([4]; increasing concentrations, liposomes containing PI): no inhibition was observed
inhibition of Con A binding to liposomes lacking PI ([4]; increasing concentrations, liposomes lacking PI): no inhibition was observed

CO[C@H]1O[C@H](CO)[C@@H](O)[C@H](O)[C@@H]1O [α-MM, α-methyl mannoside]
relative inhibitory potency, PI present in the liposomes [1, 5]: could not provide similar inhibition
relative inhibitory potency, PI absent from liposomes ([1]; myo-inositol and α-MM simultaneously used, liposomes lacking PI, FIG. 4): a more potent inhibitor than inositol
type of inhibition on simultaneous addition of both inhibitors [1]: non-competitive
DPM × 10^-3 ([3H]-thymidine, DNA synthesis) [3, 6]: 1.3 ± 0.2 DPM × 10^-3
inhibition at 40000 µM ([3]; 48 h): 99%
inhibition of Con A-induced lymphocyte mitogenesis [3]: more effective inhibitor than myo-inositol
inhibition at 1000 µM ([4]; read-out: inhibition of Con A binding to DMPC liposomes): ~50%
inhibition at 1000 µM ([4]; read-out: inhibition of Con A binding to DMPC/PI liposomes): ~50%
